This is an account of results in patent publication US9481676B2, “Azepino[4,5-B]indoles and methods of use” (Medivation Technologies, Inc., priority 2008, dated 2016).

Assay [1] concerns the target T1, human recombinant adrenergic α2A receptor (Homo sapiens, UniProt P08913).
T1 construct: expressed in transfected cells; host or cells: insect Sf9 cells
T1 sequence (P08913 1-465): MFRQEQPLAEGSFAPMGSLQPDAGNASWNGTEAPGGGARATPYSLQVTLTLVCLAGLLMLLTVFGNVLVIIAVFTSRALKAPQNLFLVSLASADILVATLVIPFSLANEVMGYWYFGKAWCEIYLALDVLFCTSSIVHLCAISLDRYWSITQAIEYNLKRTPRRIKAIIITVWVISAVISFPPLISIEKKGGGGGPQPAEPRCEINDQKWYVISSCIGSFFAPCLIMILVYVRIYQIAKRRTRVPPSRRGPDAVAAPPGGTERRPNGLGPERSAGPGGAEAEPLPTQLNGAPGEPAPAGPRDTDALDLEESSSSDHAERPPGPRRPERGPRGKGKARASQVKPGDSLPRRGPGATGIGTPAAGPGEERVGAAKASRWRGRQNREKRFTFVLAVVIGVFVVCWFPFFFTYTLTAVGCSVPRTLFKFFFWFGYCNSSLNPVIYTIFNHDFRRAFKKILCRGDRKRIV
Description: Adrenergic alpha2A radioligand binding ([3H]MK-912). As to conditions: compound at 1 μM; read-out: Adrenergic (1 μM) α2A, percent inhibition of specific binding. On the procedure: To evaluate in radioligand binding assays the activity of compounds of the invention, human recombinant adrenergic α2A receptor expressed in insect Sf9 cells (Uhlen S et al. J Pharmacol Exp Ther. 271:1558, 1994) in a modified Tris-HCl buffer (50 mM Tris-HCl, pH 7.4, 12.5 mM MgCl2, 2 mM EDTA) was used. Compounds of invention were incubated with 1 nM [^3H]MK-912 for 60 min. at 25° C. MK912 is (2S-trans)-1,3,4,5′,6,6′,7,12b-octahydro-1′,3′-dimethyl-spiro[2 h-benzofuro [2,3-a]quinolizine-2,4′ (1′H)-pyrimidin]-2′ (3′H)-one hydrochloride Non-specific binding was estimated in the presence of 10 μM WB-4101 (2-(2,6-Dimethoxyphenoxyethyl)aminomethyl-1,4-benzodioxane hydrochloride). Receptor proteins were filtered and washed, the filters were then counted to determine [^3H]MK-912 specifically bound. Compounds were screened at 1 μM or lower, using 1% DMSO as vehicle. Biochemical assay results are presented as the percent inhibition of specific binding in Table 5.

Assay [2] has as its target T2, human recombinant histamine H1 receptor (Homo sapiens, UniProt P35367).
T2 construct: expressed in transfected cells; host or cells: CHO cells
Description: Histamine H1 radioligand binding ([3H]Pyrilamine). As to conditions: compound at 1 μM; read-out: Histamine Binding (1 μM) H1, percent inhibition of specific binding. In short, it runs like this:
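Membranes from CHO cells expressing the receptor were incubated with compound and 1.2 nM [3H]pyrilamine for 180 min at 25 °C in 50 mM Tris-HCl pH 7.4 with MgCl2, NaCl and sucrose; 1 μM pyrilamine defined non-specific binding. Filter-bound radioactivity was counted.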

Assay [3] concerns the target T3, human recombinant dopamine D2L receptor (Homo sapiens, UniProt P14416).
T3 construct: expressed in transfected cells; host or cells: CHO cells
Description: Dopamine D2L radioligand binding ([3H]Spiperone). As to conditions: compound at 1 μM; read-out: Dopamine (1 μM) D2L, percent inhibition of specific binding. In short, it runs like this: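 Human recombinant D2L receptor from CHO cells, in Tris-HCl buffer pH 7.4 with ascorbic acid, BSA and 150 mM NaCl; compounds at 1 μM or lower (1% DMSO) incubated with 0.16 nM [3H]spiperone, 120 min, 25° C. Nonspecific binding by 10 μM haloperidol; filter counting; % inhibition of specific binding.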

In assay [4] the target is T4, human recombinant serotonin (5-Hydroxytryptamine) 5-HT6 receptor (Homo sapiens, UniProt P50406).
T4 construct: expressed in transfected cells; host or cells: human HeLa cells
Briefly: Serotonin 5-HT6 radioligand binding ([3H]LSD). As to conditions: compound at 1 μM; read-out: Serotonin (1 μM) 5-HT6, percent inhibition of specific binding. In short, it runs like this:
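Human recombinant 5-HT6 receptor from HeLa cells incubated with 1.5 nM [3H]LSD for 120 min at 37° C in 50 mM Tris-HCl pH 7.4, 150 mM NaCl, 2 mM ascorbic acid, 0.001% BSA. Nonspecific binding defined with 5 μM serotonin; bound ligand counted after filtration.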

Assay [5] concerns the target T5, human recombinant histamine H2 receptor (Homo sapiens, UniProt P25021).
T5 construct: expressed in transfected cells; host or cells: CHO-K1 cells
Description: Histamine H2 radioligand binding ([125I]Aminopotentidine). Particulars: compound at 1 μM; read-out: Histamine Binding (1 μM) H2, percent inhibition of specific binding. In short, it runs like this:
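Membranes from CHO-K1 cells expressing recombinant human H2 receptor, in 50 mM phosphate buffer pH 7.4, incubated with 0.1 nM [125I]aminopotentidine for 120 min at 25 °C; nonspecific binding defined with 3 μM tiotidine.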

T2 sequence (P35367 whole entry): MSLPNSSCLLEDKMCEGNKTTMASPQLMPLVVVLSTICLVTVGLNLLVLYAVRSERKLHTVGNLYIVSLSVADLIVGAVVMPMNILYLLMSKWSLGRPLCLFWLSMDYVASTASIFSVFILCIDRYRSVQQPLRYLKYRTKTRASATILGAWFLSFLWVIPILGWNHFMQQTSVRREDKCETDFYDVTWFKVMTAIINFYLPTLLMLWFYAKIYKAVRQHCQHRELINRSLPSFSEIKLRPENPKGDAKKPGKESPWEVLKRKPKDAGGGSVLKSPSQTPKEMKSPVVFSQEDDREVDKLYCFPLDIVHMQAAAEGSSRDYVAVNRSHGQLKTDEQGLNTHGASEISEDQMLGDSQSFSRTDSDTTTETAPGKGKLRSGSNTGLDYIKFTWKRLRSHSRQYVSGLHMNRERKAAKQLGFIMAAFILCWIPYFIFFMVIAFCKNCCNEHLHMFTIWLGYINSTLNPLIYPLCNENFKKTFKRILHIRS
T3 sequence (P14416 whole entry): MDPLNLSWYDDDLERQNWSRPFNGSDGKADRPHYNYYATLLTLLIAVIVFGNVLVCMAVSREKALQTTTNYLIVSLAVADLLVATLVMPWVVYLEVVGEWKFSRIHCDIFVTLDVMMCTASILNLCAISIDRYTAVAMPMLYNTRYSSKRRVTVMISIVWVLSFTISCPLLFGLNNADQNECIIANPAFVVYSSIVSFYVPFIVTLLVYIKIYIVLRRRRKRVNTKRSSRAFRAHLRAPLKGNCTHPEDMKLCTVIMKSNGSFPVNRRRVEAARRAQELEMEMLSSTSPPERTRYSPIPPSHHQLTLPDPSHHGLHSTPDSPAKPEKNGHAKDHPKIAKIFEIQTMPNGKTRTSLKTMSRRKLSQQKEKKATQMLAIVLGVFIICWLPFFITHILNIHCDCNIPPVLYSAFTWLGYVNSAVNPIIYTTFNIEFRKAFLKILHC
T4 sequence (P50406 whole entry): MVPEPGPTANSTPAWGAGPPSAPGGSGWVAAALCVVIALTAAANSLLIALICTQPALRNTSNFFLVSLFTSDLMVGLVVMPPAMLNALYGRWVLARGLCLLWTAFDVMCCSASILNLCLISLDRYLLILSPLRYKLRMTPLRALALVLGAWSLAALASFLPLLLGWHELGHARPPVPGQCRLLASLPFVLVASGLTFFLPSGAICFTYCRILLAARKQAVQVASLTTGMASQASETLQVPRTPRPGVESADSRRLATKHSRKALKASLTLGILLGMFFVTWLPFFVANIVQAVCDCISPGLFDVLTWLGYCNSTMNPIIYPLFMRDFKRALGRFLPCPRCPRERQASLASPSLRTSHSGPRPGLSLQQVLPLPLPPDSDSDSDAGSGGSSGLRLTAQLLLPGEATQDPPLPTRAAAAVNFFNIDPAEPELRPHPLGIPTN
T5 sequence (P25021 whole entry): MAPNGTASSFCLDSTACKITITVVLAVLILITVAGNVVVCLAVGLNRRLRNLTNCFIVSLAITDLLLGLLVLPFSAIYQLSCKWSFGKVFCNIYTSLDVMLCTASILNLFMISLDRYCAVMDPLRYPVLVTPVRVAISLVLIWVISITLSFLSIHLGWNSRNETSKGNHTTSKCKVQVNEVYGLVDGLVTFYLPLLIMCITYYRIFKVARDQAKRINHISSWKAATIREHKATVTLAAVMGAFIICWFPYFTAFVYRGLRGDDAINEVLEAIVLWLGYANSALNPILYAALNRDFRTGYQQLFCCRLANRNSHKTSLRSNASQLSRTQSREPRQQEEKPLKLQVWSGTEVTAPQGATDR

`Cc1ccc2c(c1)c1c(n2CCc2ccc(Cl)cc2)CCN(C)CC1` [Compound No. 28, 6-(4-chlorophenethyl)-1,2,3,4,5,6-hexahydro-3,9-dimethylazepino[4,5-b]indole]: the inhibition at 1 µM in assay [1] was found to be 96%; in assay [2] it was 103%; in assay [3], 67%; in assay [4], 95%; in assay [5], 97%.
The corresponding values for `CN1CCc2c(n(CCc3ccc(C(=O)O)nc3)c3ccc(Cl)cc23)CC1` [Compound No. 21, 5-(2-(9-chloro-2,3,4,5-tetrahydro-3-methylazepino[4,5-b]indol-6(1H)-yl)ethyl)pyridine-2-carboxylic acid] are -7%, 96%, 6%, 30% and 13%.
The corresponding values for `CN1CCc2c(n(CC(=O)Nc3ccccc3)c3ccc(Cl)cc23)CC1` [Compound No. 73, 2-(9-chloro-2,3,4,5-tetrahydro-3-methylazepino[4,5-b]indol-6(1H)-yl)-N-phenylacetamide] are 28%, 18%, -14%, 0% and -5%.
For `Cc1ccc2c(c1)c1c(n2CC(O)c2ccccc2)CCN(C)CC1` (centres unmarked) [Compound No. 25, 2-(2,3,4,5-tetrahydro-3,9-dimethylazepino[4,5-b]indol-6(1H)-yl)-1-phenylethanol], in that order: 100%, 91%, 43%, 93% and 47%.
`Cc1ccc2c(c1)c1c(n2CCc2ccc(C(=O)O)nc2)CCN(C)CC1` [Compound No. 11, 5-(2-(2,3,4,5-tetrahydro-3,9-dimethylazepino[4,5-b]indol-6(1H)-yl)ethyl)pyridine-2-carboxylic acid]: the inhibition at 1 µM in assay [1] was 1%; in assay [2] it was 97%; in assay [3] it was -11%; in assay [4] it was 4%; in assay [5], 7%.
As to `CN1CCc2c(n(CC(O)c3ccccc3F)c3ccc(Cl)cc23)CC1` (centres unmarked) [Compound No. 40, 2-(9-chloro-2,3,4,5-tetrahydro-3-methylazepino[4,5-b]indol-6(1H)-yl)-1-(2-fluorophenyl)ethanol], the inhibition at 1 µM was found to be 96% in assay [1]; 101% in assay [2]; 46% in assay [3]; 101% in assay [4]; 61% in assay [5].
On to `Cc1ccc2c(c1)c1c(n2CCc2ccncc2)CCN(C)CC1` [Compound No. 6, 1,2,3,4,5,6-hexahydro-3,9-dimethyl-6-(2-(pyridin-4-yl)ethyl)azepino[4,5-b]indole], for which the inhibition at 1 µM was 93% in assay [1]; 103% in assay [2]; 30% in assay [3]; 82% in assay [4]; 52% in assay [5].
The corresponding values for `Cc1ccc2c(c1)c1c(n2CC(=O)N(C)C2CCCCC2)CCN(C)CC1` [Compound No. 232, N-cyclohexyl-2-(3,9-dimethyl-2,3,4,5-tetrahydroazepino[4,5-b]indol-6(1H)-yl)-N-methylacetamide] are 90%, 95%, 8%, 20% and 22%.
The corresponding values for `Cc1ccc2c(c1)c1c(n2CC(O)c2ccc(F)cc2F)CCN(C)CC1` (centres unmarked) [Compound No. 59, 1-(2,4-difluorophenyl)-2-(2,3,4,5-tetrahydro-3,9-dimethylazepino[4,5-b]indol-6(1H)-yl)ethanol] are 89%, 60%, 20%, 97% and 37%.
For `Cc1ccc(C(O)Cn2c3c(c4cc(C)ccc42)CCN(C)CC3)cc1` (centres unmarked) [Compound No. 27, 2-(2,3,4,5-tetrahydro-3,9-dimethylazepino[4,5-b]indol-6(1H)-yl)-1-p-tolylethanol], in that order: 98%, 101%, 58%, 92% and 78%.
As to `Cc1ccc2c(c1)c1c(n2CC(C)(O)c2ccc(F)cc2)CCN(C)CC1` (centres unmarked) [Compound No. 14, 2-(4-fluorophenyl)-1-(2,3,4,5-tetrahydro-3,9-dimethylazepino[4,5-b]indol-6(1H)-yl)propan-2-ol], the inhibition at 1 µM in assay [1] is 90%; in assay [2], 98%; in assay [3], 38%; in assay [4] it was 93%; in assay [5], 83%.
The corresponding values for `Cc1ccc2c(c1)c1c(n2CC(=O)Nc2ccc(F)cc2)CCN(C)CC1` [Compound No. 44, N-(4-fluorophenyl)-2-(2,3,4,5-tetrahydro-3,9-dimethylazepino[4,5-b]indol-6(1H)-yl)acetamide] are 1%, 16%, -8%, 1% and 1%.
For `Cc1ccc2c(c1)c1c(n2CC(=O)NC(C)C)CCN(C)CC1` [Compound No. 54, 2-(2,3,4,5-tetrahydro-3,9-dimethylazepino[4,5-b]indol-6(1H)-yl)-N-isopropylacetamide], in that order: 5%, 18%, 6%, -10% and -3%.
On to `Cc1ccc2c(c1)c1c(n2CC(=O)OC2CCCC2)CCN(C)CC1` [Compound No. 55, Cyclopentyl-2-(2,3,4,5-tetrahydro-3,9-dimethylazepino[4,5-b]indol-6(1H)-yl)acetate], for which the inhibition at 1 µM in assay [1] was 12%; in assay [2], 15%; in assay [3], 6%; in assay [4], 4%; in assay [5], -3%.
For `Cc1ccc2c(c1)c1c(n2CC(O)c2ccc(C)nc2)CCN(C)CC1` (centres unmarked) [Compound No. 23, 2-(2,3,4,5-tetrahydro-3,9-dimethylazepino[4,5-b]indol-6(1H)-yl)-1-(6-methylpyridin-3-yl)ethanol], in that order: 42%, 58%, 4%, 17% and -3%.
With `CN1CCc2c(n(CCc3ccccc3F)c3ccc(Cl)cc23)CC1` [Compound No. 61, 6-(2-fluorophenethyl)-9-chloro-1,2,3,4,5,6-hexahydro-3-methylazepino[4,5-b]indole], the inhibition at 1 µM in assay [1] came out at 23%; in assay [2], 97%; in assay [3], 1%; in assay [4], 5%; in assay [5], 89%.

In general, inhibition refers to the relative decrease from the control value, in per cent.
